Assay results published in patent publication US10301267B2, “Compounds” (AstraZeneca AB, priority 2006, dated 2019).
pIC50: −log10 of the molar value. Structures can show the parent of a compound that is named as a salt.

What follows are molecules tested against FGFR1 active kinase (Homo sapiens, UniProt P11362) (assay: FGFR Kinase assay - Caliper). Settings: FGFR1 […], 408 uM ATP; mean of n as printed; read-out: FGFR Kinase assay - Caliper, IC50.
Format: biochemical
Method: FGFR Kinase Assay—Caliper
To determine inhibition of FGFR activity, kinase assays were conducted using Caliper technology.
Kinase activity assays were performed in Greiner 384-well low volume plates, with a total reaction volume of 12 ul per well. Final concentration of FGFR1 active kinase in each reaction well was 7.2 nM. The substrate for each assay was a custom peptide with fluorescent tag (13 amino acids in length, […] with the fluorescene tag on the first K).
Compounds were serially diluted in 5% (v/v) DMSO, before being added to assay plates. The Enzyme (at 7.2 nM [final]) and Substrate (at 3.6 uM [final]) were added separately to the compound plates, in reaction buffer [comprising: 50 mM MOPS (Sigma, Catalogue No. M1254)—pH 6.5, 0.004% Triton (Sigma, Catalogue No. X-100), 2.4 mM DTT, 12 mM MgCl2, 408 uM ATP] resulting in a final DMSO concentration in the reaction mix of 0.8%.
Assay plates were incubated at room temperature for 1.5 h, before the reaction was stopped with the addition of buffer [comprising: 100 mM HEPES—pH7.5, 0.033% Brij-35 (Sigma Catalogue No. B4184), 0.22% Caliper Coating Reagent #3 (Caliper Life Sciences Catalogue No. 760050), 88 mM EDTA, 5% DMSO]. Stopped assay plates were then read using the Caliper LabChip® LC3000 (which uses microfludics to measure a shift in mobility between fluorescent labelled peptide and the FGFR1 kinase—phosphorylated form of this peptide).
In the assay, compounds were tested at a range of concentrations.
Percentage inhibition at 1 uM, as expressed herein, is a calculated value based on the curve fit that was generated experimentally. From the fitted curve plot, the effect of compound at a concentration of 1 uM was calculated as a percentage inhibition. The IC50 is the concentration of compound, which inhibits FGFR1 kinase activity by 50% in the context of this assay.
Also: 408 µM ATP.

FGFR1 active kinase, sequence (P11362 22-822): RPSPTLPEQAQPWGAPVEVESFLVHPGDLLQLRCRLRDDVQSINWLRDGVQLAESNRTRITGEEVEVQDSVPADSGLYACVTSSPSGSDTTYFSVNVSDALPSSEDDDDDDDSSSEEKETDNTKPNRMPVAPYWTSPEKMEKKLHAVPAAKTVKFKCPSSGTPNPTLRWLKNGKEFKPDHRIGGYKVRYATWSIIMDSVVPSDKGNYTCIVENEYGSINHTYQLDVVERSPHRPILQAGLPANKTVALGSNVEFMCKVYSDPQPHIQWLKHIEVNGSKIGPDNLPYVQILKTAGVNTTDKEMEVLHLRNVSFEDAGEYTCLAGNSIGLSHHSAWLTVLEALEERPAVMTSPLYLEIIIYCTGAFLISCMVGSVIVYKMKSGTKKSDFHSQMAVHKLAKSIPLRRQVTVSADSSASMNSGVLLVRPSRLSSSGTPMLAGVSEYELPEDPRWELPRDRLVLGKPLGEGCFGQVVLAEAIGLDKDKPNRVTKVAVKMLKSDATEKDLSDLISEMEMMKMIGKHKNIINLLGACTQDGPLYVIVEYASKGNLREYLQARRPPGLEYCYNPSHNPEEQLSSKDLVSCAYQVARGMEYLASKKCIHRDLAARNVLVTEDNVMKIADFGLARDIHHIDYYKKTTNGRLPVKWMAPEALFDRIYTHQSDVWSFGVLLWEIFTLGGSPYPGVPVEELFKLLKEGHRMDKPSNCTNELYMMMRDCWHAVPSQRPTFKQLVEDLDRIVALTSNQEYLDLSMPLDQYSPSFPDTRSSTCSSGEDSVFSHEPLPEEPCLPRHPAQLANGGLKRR

pIC50	SMILES
4.17	COC(=O)c1ccc(C(=O)Nc2cc(CCc3cccc(OC)c3)n[nH]2)nc1 [Example 61, Methyl 6-[[5-[2-(3-methoxyphenyl)ethyl]-2H-pyrazol-3-yl]carbamoyl]pyridine-3-carboxylate]
5.34	COc1cccc(CCc2cc(NC(=O)c3ccc(Cl)nc3)[nH]n2)c1 [Example 62, 6-Chloro-N-[5-[2-(3-methoxyphenyl)ethyl]-2H-pyrazol-3-yl]pyridine-3-carboxamide]
5.42	COc1cccc(CCc2cc(NC(=O)c3ccc(C#N)nc3)[nH]n2)c1 [Example 63, 6-Cyano-N-[5-[2-(3-methoxyphenyl)ethyl]-2H-pyrazol-3-yl]pyridine-3-carboxamide]
5.30	COc1cccc(CCc2cc(NC(=O)c3cc(O)ccn3)[nH]n2)c1 [Example 64, 4-Hydroxy-N-[5-[2-(3-methoxyphenyl)ethyl]-2H-pyrazol-3-yl]pyridine-2-carboxamide]
6.62	COc1cccc(CCc2cc(NC(=O)c3ccc(CCN4CCCC4)nc3)[nH]n2)c1 [Example 65, N-[5-[2-(3-Methoxyphenyl)ethyl]-2H-pyrazol-3-yl]-6-(2-pyrrolidin-1-ylethyl)pyridine-3-carboxamide]
5.99	COc1cccc(CCc2cc(NC(=O)c3ccc(C(=O)O)nc3)[nH]n2)c1 [Example 66, 5-[[5-[2-(3-Methoxyphenyl)ethyl]-2H-pyrazol-3-yl]carbamoyl]pyridine-2-carboxylic Acid]
5.54	COC(=O)c1ccc(C(=O)Nc2cc(CCc3cccc(OC)c3)n[nH]2)cn1 [Example 67, Methyl 5-[[5-[2-(3-methoxyphenyl)ethyl]-2H-pyrazol-3-yl]carbamoyl]pyridine-2-carboxylate]
6.91	COc1cc(COc2cc(NC(=O)c3ccc(N4CCN(C)CC4)cn3)[nH]n2)cc(OC)c1 [Example 69, N-[5-[(3,5-Dimethoxyphenyl)methoxy]-2H-pyrazol-3-yl]-5-(4-methylpiperazin-1-yl)pyridine-2-carboxamide]
7.51	COc1cc(COc2cc(NC(=O)c3ccc(NCCN(C)C)cc3)[nH]n2)cc(OC)c1 [Example 70, N-[5-[(3,5-Dimethoxyphenyl)methoxy]-2H-pyrazol-3-yl]-4-(2-dimethylaminoethylamino)benzamide Hydrochloride]
6.80	COc1ccc(C(=O)Nc2cc(OCc3cc(OC)cc(OC)c3)n[nH]2)cc1 [Example 71, N-[5-[(3,5-Dimethoxyphenyl)methoxy]-2H-pyrazol-3-yl]-4-methoxy-benzamide]
7.60	COc1cc(COc2cc(NC(=O)c3ccc(N4CCNCC4)nc3)[nH]n2)cc(OC)c1 [Example 72, N-[5-[(3,5-Dimethoxyphenyl)methoxy]-2H-pyrazol-3-yl]-6-piperazin-1-yl-pyridine-3-carboxamide]
7.36	COc1cc(COc2cc(NC(=O)c3cnc(N4CCN(C)CC4)nc3)n[nH]2)cc(OC)c1 [Example 73, N-[5-[(3,5-Dimethoxyphenyl)methoxy]-1H-pyrazol-3-yl]-2-(4-methylpiperazin-1-yl)pyrimidine-5-carboxamide]
6.89	COc1cc(COc2cc(NC(=O)c3cccc(N4CCNCC4)c3)n[nH]2)cc(OC)c1 [Example 74, N-[5-[(3,5-Dimethoxyphenyl)methoxy]-1H-pyrazol-3-yl]-3-piperazin-1-yl-benzamide]
8.07	COc1cc(COc2cc(NC(=O)c3ccc(N4CCCNCC4)cc3)n[nH]2)cc(OC)c1 [Example 75, 4-(1,4-Diazepan-1-yl)-N-[5-[(3,5-dimethoxyphenyl)methoxy]-1H-pyrazol-3-yl]benzamide Hydrochloride]
6.47	CN(C)Cc1ccc(CCc2cc(NC(=O)c3ccc(N4CCN(C)CC4)cc3)n[nH]2)o1 [Example 76, N-[5-[2-[5-(Dimethylaminomethyl)-2-furyl]ethyl]-1H-pyrazol-3-yl]-4-(4-methylpiperazin-1-yl)benzamide]
6.85	CN1CCN(c2ccc(C(=O)Nc3cc(CCc4ccc5c(c4)OCO5)n[nH]3)cc2)CC1 [Example 77, N-[5-(2-Benzo[1,3]dioxol-5-ylethyl)-2H-pyrazol-3-yl]-4-(4-methylpiperazin-1-yl)benzamide]
6.33	COc1ccc(OC)c(CCc2cc(NC(=O)c3ccc(N4CCN(C)CC4)cc3)[nH]n2)c1 [Example 78, N-[5-[2-(2,5-Dimethoxyphenyl)ethyl]-2H-pyrazol-3-yl]-4-(4-methylpiperazin-1-yl)benzamide]
6.70	COc1ccc(CCc2cc(NC(=O)c3ccc(N4CCN(C)CC4)cc3)[nH]n2)c(C)c1 [Example 79, N-[5-[2-(4-Methoxy-2-methyl-phenyl)ethyl]-2H-pyrazol-3-yl]-4-(4-methylpiperazin-1-yl)benzamide]
7.40	COc1cc(CCc2cc(NC(=O)c3ccc(N4CCN(C)C(C)C4)cc3)n[nH]2)cc(OC)c1 (stereo not drawn) [Example 81, N-[5-[2-(3,5-Dimethoxyphenyl)ethyl]-1H-pyrazol-3-yl]-4-(3,4-dimethylpiperazin-1-yl)benzamide]
6.00	COc1cc(CCc2cc(NC(=O)c3ccccc3NCc3cc(C)no3)n[nH]2)cc(OC)c1 [Example 83, N-[5-[2-(3,5-Dimethoxyphenyl)ethyl]-1H-pyrazol-3-yl]-2-[(3-methyl-1,2-oxazol-5-yl)methylamino]benzamide]
6.41	COc1cc(CCc2cc(NC(=O)c3ccc(N4CCN(C)CC4)nn3)[nH]n2)cc(OC)c1 [Example 84, N-[5-[2-(3,5-Dimethoxyphenyl)ethyl]-2H-pyrazol-3-yl]-6-(4-methylpiperazin-1-yl)pyridazine-3-carboxamide]
7.02	COc1cc(CCc2cc(NC(=O)c3ccc(C(=O)N4CCN(C)CC4)cc3)n[nH]2)cc(OC)c1 [Example 86, N-[5-[2-(3,5-Dimethoxyphenyl)ethyl]-1H-pyrazol-3-yl]-4-(4-methylpiperazine-1-carbonyl)benzamide]
9.40	COc1cc(CCc2cc(NC(=O)c3ccc(N4CCN(C(C)C)CC4)cc3)n[nH]2)cc(OC)c1 [Example 87, N-[5-[2-(3,5-Dimethoxyphenyl)ethyl]-1H-pyrazol-3-yl]-4-(4-propan-2-ylpiperazin-1-yl)benzamide]
8.05	COc1cc(CCc2cc(NC(=O)c3ccc(N4CCN(C5CCC5)CC4)cc3)n[nH]2)cc(OC)c1 [Example 89, 4-(4-Cyclobutylpiperazin-1-yl)-N-[5-[2-(3,5-dimethoxyphenyl)ethyl]-1H-pyrazol-3-yl]benzamide]
7.25	COc1cc(CCc2cc(NC(=O)c3ccc(N4CCN(C(C)=O)CC4)cc3)n[nH]2)cc(OC)c1 [Example 90, 4-(4-Acetylpiperazin-1-yl)-N-[5-[2-(3,5-dimethoxyphenyl)ethyl]-1H-pyrazol-3-yl]benzamide]
6.60	COc1cccc(CCc2cc(NC(=O)c3ccc(N4CCN(S(C)(=O)=O)CC4)cc3)n[nH]2)c1 [Example 91, N-[5-[2-(3-Methoxyphenyl)ethyl]-1H-pyrazol-3-yl]-4-(4-methylsulfonylpiperazin-1-yl)benzamide]
8.10	COc1cc(CCc2cc(NC(=O)c3ccc(C4CCN(C)CC4)cc3)n[nH]2)cc(OC)c1 [Example 92, N-[5-[2-(3,5-Dimethoxyphenyl)ethyl]-1H-pyrazol-3-yl]-4-(1-methyl-4-piperidyl)benzamide]
7.43	COc1cc(CCc2cc(NC(=O)c3ccc(N4CCN5CCCC5C4)cc3)[nH]n2)cc(OC)c1 (stereo not drawn) [Example 93, 4-(3,4,6,7,8,8a-Hexahydro-1H-pyrrolo[2,1-c]pyrazin-2-yl)-N-[5-[2-(3,5-dimethoxyphenyl)ethyl]-2H-pyrazol-3-yl]benzamide]
7.09	COc1cc(CCc2cc(NC(=O)c3ccc(N4CCN5CCCCC5C4)cc3)[nH]n2)cc(OC)c1 (stereo not drawn) [Example 94, 4-(1,3,4,6,7,8,9,9a-Octahydropyrido[2,1-c]pyrazin-2-yl)-N-[5-[2-(3,5-dimethoxyphenyl)ethyl]-2H-pyrazol-3-yl]benzamide]
6.85	COc1cc(CCc2cc(NC(=O)c3ccc(CN4CCN(C)CC4)cc3)n[nH]2)cc(OC)c1 [Example 95, N-[5-[2-(3,5-Dimethoxyphenyl)ethyl]-1H-pyrazol-3-yl]-4-[(4-methylpiperazin-1-yl)methyl]benzamide]
